Assay results: patent publication US20260315452A1, “PROTEASE INHIBITORS AND USES THEREOF” (priority 2023, published 2026)

biological target: SARS-CoV-2 3CLpro (Severe acute respiratory syndrome coronavirus 2, UniProt P0DTD1); assay: biochemical; conditions: inhibition of SARS-CoV-2 3CLpro; 15 nM 3CLpro, 25 μM fluorogenic substrate, 37° C.; read-out: Inhibitory Activity (IC50)

`O=C(N[C@H]1CCOC1)c1cc(Br)cc(C(F)(F)F)c1N[C@H]1CN(C(=O)c2cncc3cccnc23)CCC1(F)F` [Compound 109, 5-bromo-2-(((S)-4,4-difluoro-1-(1,6-naphthyridine-8-carbonyl)piperidin-3-yl)amino)-N-((S)-tetrahydrofuran-3-y1)-3-(trifluoromethyl)benzamide] and `O=C(N[C@H]1CCOC1)c1cc(Br)cc(C(F)(F)F)c1N[C@H]1CN(C(=O)c2cncc3ccccc23)CCC1(F)F` [Compound 164, 5-bromo-2-(((S)-4,4-difluoro-1-(isoquinoline-4-carbonyl)piperidin-3-yl)amino)-N-((S)-tetrahydrofuran-3-yl)-3-(trifluoromethyl)benzamide] cannot be ordered by IC50: under 100 nM for the first, under 100 nM for the second.

`O=C(c1cc(Br)cc(C(F)(F)F)c1N[C@H]1CN(C(=O)c2cncc3cccnc23)CCC1(F)F)N1CC(O)C1` [Compound 110, (S)-(5-bromo-2-((4,4-difluoro-1-(1,6-naphthyridine-8-carbonyl)piperidin-3-yl)amino)-3-(trifluoromethyl)phenyl)(3-hydroxyazetidin-1-yl)methanone] and `CNC(=O)c1cc(Br)cc(C(F)(F)F)c1N[C@H]1CN(C(=O)c2cncc3cccnc23)CCC1(F)F` [Compound 167, (S)-5-bromo-2-((4,4-difluoro-1-(1,6-naphthyridine-8-carbonyl)piperidin-3-yl)amino)-N-methyl-3-(trifluoromethyl)benzamide] cannot be ordered by IC50: under 100 nM for the first, under 100 nM for the second.

`COC1CN(C(=O)c2cc(Cl)cc([N+](=O)[O-])c2N[C@H]2CN(C(=O)c3cncc4cccnc34)CCC2(F)F)C1` [Compound 111, (S)-(5-chloro-2-((4,4-difluoro-1-(1,6-naphthyridine-8-carbonyl)piperidin-3-yl)amino)-3-nitrophenyl)(3-methoxyazetidin-1-yl)methanone] and `O=C(c1cc(Cl)cc([N+](=O)[O-])c1N[C@H]1CN(C(=O)c2cncc3cccnc23)CCC1(F)F)N1CC(O)C1` [Compound 112, (S)-(5-chloro-2-((4,4-difluoro-1-(1,6-naphthyridine-8-carbonyl)piperidin-3-yl)amino)-3-nitrophenyl)(3-hydroxyazetidin-1-yl)methanone] cannot be ordered by IC50: under 100 nM for the first, under 100 nM for the second.

`CNC(=O)c1cc(Br)cc([N+](=O)[O-])c1N[C@H]1CN(C(=O)c2cnnn2C)CCC1(F)F` [Compound 113, (S)-5-bromo-2-((4,4-difluoro-1-(1-methyl-1H-1,2,3-triazole-5-carbonyl)piperidin-3-yl)amino)-N-methyl-3-nitrobenzamide] and `CNC(=O)c1cc(Br)cc([N+](=O)[O-])c1N[C@H]1CN(C(=O)c2cccnc2C#N)CCC1(F)F` [Compound 114, (S)-5-bromo-2-((1-(2-cyanonicotinoyl)-4,4-difluoropiperidin-3-yl)amino)-N-methyl-3-nitrobenzamide] cannot be ordered by IC50: at least 10000 nM for the first, 1000 to 10000 nM for the second.

Compared with `O=C(NC1CC(F)(F)C1)c1cc(Br)cc([N+](=O)[O-])c1N1CCC2(CCN(C(=O)c3cncnc3)C2)C1` (stereo not drawn) [Compound 115, 5-bromo-N-(3,3-difluorocyclobutyl)-3-nitro-2-(7-(pyrimidine-5-carbonyl)-2,7-diazaspiro[4.4]nonan-2-yl)benzamide], `O=C(NC1CC(F)(F)C1)c1cc(Br)cc([N+](=O)[O-])c1N[C@H]1CN(C(=O)c2cncc3ccccc23)CC(F)(F)C1` [Compound 134, (R)-5-bromo-2-((5,5-difluoro-1-(isoquinoline-4-carbonyl)piperidin-3-yl)amino)-N-(3,3-difluorocyclobutyl)-3-nitrobenzamide] is lower in IC50: at least 10000 nM for the first, 100 to 1000 nM for the second.

First: CNC(=O)c1cc(Cl)cc([N+](=O)[O-])c1NC(C(C)C)C1CN(C(=O)c2cncc3ccccc23)C1 (stereo not drawn) [Compound 130, 5-chloro-2-((1-(1-(isoquinoline-4-carbonyl)azetidin-3-yl)-2-methylpropyl)amino)-N-methyl-3-nitrobenzamide acid]
Second: CNC(=O)c1cc(Br)cc([N+](=O)[O-])c1N[C@H]1CN(C(=O)c2cncc3ccccc23)C[C@H]1F [Compound 166, 5-bromo-2-[[(3S,4R)-4-fluoro-1-(isoquinoline-4-carbonyl)pyrrolidin-3-yl]amino]-N-methyl-3-nitro-benzamide]
The IC50 of the first is higher: 100 to 1000 nM for the first, under 100 nM for the second.

Compared with `CNC(=O)c1cc(Br)cc([N+](=O)[O-])c1Nc1ccccc1NC(=O)c1cncc2ccccc12` [Compound 131, N-(2-((4-bromo-2-(methylcarbamoyl)-6-nitrophenyl)amino)phenyl) isoquinoline-4-carboxamide], `CNC(=O)c1cc(Br)cc([N+](=O)[O-])c1N[C@@H]1CCC(C)(C)N(C(=O)c2cncc3ccccc23)C1` [Compound 138, (R)-5-bromo-2-((1-(isoquinoline-4-carbonyl)-6,6-dimethylpiperidin-3-yl)amino)-N-methyl-3-nitrobenzamide] is lower in IC50: at least 10000 nM for the first, 100 to 1000 nM for the second. The second is the more potent here.

Compared with `C[C@@H](NC(=O)c1cc(Br)cc([N+](=O)[O-])c1N[C@@H]1COCC[C@@H]1NC(=O)c1cncc2ccccc12)C(F)(F)F` [Compound 136, N-((3S, 4S)-3-((4-bromo-2-nitro-6-(((R)-1,1,1-trifluoropropan-2-yl)carbamoyl)phenyl)amino)tetrahydro-2H-pyran-4-yl)isoquinoline-4-carboxamide], `O=C(NC1CC(F)(F)C1)c1cc(Br)cc([N+](=O)[O-])c1N[C@@H]1COC[C@@H]1NC(=O)c1cncc2ccccc12` [Compound 137, N-((3R,4S)-4-((4-bromo-2-((3,3-difluorocyclobutyl)carbamoyl)-6-nitrophenyl)amino)tetrahydrofuran-3-yl)isoquinoline-4-carboxamide] is higher in IC50: 100 to 1000 nM for the first, 1000 to 10000 nM for the second. The first is the more potent here.

Compared with `CNC(=O)c1cc(Br)cc([N+](=O)[O-])c1N[C@H]1CN(C(c2cncc3ccccc23)C(F)(F)F)CCC1(F)F` (stereo partly drawn) [Compound 140, 5-bromo-2-(((35)-4,4-difluoro-1-(2,2,2-trifluoro-1-(isoquinolin-4-yl)ethyl)piperidin-3-yl)amino)-N-methyl-3-nitrobenzamide], `O=C(NCC(F)(F)F)c1cc(Br)cc([N+](=O)[O-])c1N[C@H]1CN(C(=O)c2cncc3ccccc23)CCC1(F)F` [Compound 148, (S)-5-bromo-2-((4,4-difluoro-1-(isoquinoline-4-carbonyl)piperidin-3-yl)amino)-3-nitro-N-(2,2,2-trifluoroethyl) benzamide] is lower in IC50: at least 10000 nM for the first, under 100 nM for the second.

`CNC(=O)c1cc(Br)cc([N+](=O)[O-])c1N[C@H]1CN(C(=O)c2cncc3ccccc23)CC[C@H]1C` [Compound 141, 5-bromo-2-(((3R, 4R)-1-(isoquinoline-4-carbonyl)-4-methylpiperidin-3-yl)amino)-N-methyl-3-nitrobenzamide] and `O=C(O)c1cc(Br)cc([N+](=O)[O-])c1N[C@H]1CN(C(=O)c2cncc3ccccc23)CCC1(F)F` [Compound 153, (S)-5-bromo-2-((4,4-difluoro-1-(isoquinoline-4-carbonyl)piperidin-3-yl)amino)-3-nitrobenzoic acid] fall in the same range of IC50: 100 to 1000 nM for the first, 100 to 1000 nM for the second.

`O=C(N[C@@H]1CCNC1)c1cc(Br)cc([N+](=O)[O-])c1N[C@H]1CN(C(=O)c2cncc3ccccc23)CC1(F)F` [Compound 150] and `O=C(N[C@@H]1CCOC1)c1cc(Br)cc([N+](=O)[O-])c1N[C@H]1CN(C(=O)c2cncc3ccccc23)CC1(F)F` [Compound 163, 5-bromo-2-(((S)-4,4-difluoro-1-(isoquinoline-4-carbonyl)pyrrolidin-3-yl)amino)-3-nitro-N-((R)-tetrahydrofuran-3-yl)benzamide] cannot be ordered by IC50: under 100 nM for the first, under 100 nM for the second.

`CC1(NC(=O)c2cc(Cl)cc([N+](=O)[O-])c2N[C@H]2CN(C(=O)c3cncc4ccccc34)CCC2(F)F)CC1` [Compound 152, (S)-5-chloro-2-((4,4-difluoro-1-(isoquinoline-4-carbonyl)piperidin-3-yl)amino)-N-(1-methylcyclopropyl)-3-nitrobenzamide] and `CNC(=O)c1cc(Cl)cc([N+](=O)[O-])c1N[C@H]1CN(C(=O)c2cncc3cc(O)ccc23)CCC1(F)F` [Compound 168, (S)-5-chloro-2-((4,4-difluoro-1-(7-hydroxyisoquinoline-4-carbonyl)piperidin-3-yl)amino)-N-methyl-3-nitrobenzamide] cannot be ordered by IC50: under 100 nM for the first, under 100 nM for the second.

`O=C(N[C@@H]1CCNC1)c1cc(Br)cc(C(F)(F)F)c1N[C@H]1CN(C(=O)c2cncc3ccccc23)CCC1(F)F` [Compound 160, 5-bromo-2-[[(3S)-4,4-difluoro-1-(isoquinoline-4-carbonyl)-3-piperidyl]amino]-N-[(3R)-pyrrolidin-3-yl]-3-(trifluoromethyl)benzamide] and `O=C(N[C@H]1CCOC1)c1cc(Cl)cc(C(F)(F)F)c1N[C@H]1CN(C(=O)c2cncc3ccccc23)CCC1(F)F` [Compound 165, 5-chloro-2-(((S)-4,4-difluoro-1-(isoquinoline-4-carbonyl)piperidin-3-yl)amino)-N-((S)-tetrahydrofuran-3-yl)-3-(trifluoromethyl)benzamide] cannot be ordered by IC50: under 100 nM for the first, under 100 nM for the second.

`CN(C)C(=O)c1cc(Br)cc([N+](=O)[O-])c1N[C@H]1CN(C(=O)c2cncc3ccccc23)CC1(F)F` [Compound 161, (S)-5-bromo-2-((4,4-difluoro-1-(isoquinoline-4-carbonyl)pyrrolidin-3-yl)amino)-N, N-dimethyl-3-nitrobenzamide] and `O=C(c1cc(Br)cc([N+](=O)[O-])c1N[C@H]1CN(C(=O)c2cncc3ccccc23)CC1(F)F)N1CC(F)(F)C1` [Compound 162, (S)-(5-bromo-2-((4,4-difluoro-1-(isoquinoline-4-carbonyl)pyrrolidin-3-yl)amino)-3-nitrophenyl)(3,3-difluoroazetidin-1-yl)methanone] cannot be ordered by IC50: under 100 nM for the first, under 100 nM for the second.

`CNC(=O)c1cc(Cl)cc([N+](=O)[O-])c1N[C@H]1CN(C(=O)c2cncc(Cl)c2C)CCC1(F)F` [Compound 169, (S)-5-chloro-2-((1-(5-chloro-4-methylnicotinoyl)-4,4-difluoropiperidin-3-yl)amino)-N-methyl-3-nitrobenzamide] and `CNC(=O)c1cc(Cl)cc([N+](=O)[O-])c1N[C@H]1CN(C(=O)c2cncc3ccncc23)CC[C@@H]1F` [Compound 171, 5-chloro-2-(((3S, 4S)-4-fluoro-1-(2,6-naphthyridine-4 - carbonyl)piperidin-3-yl)amino)-N-methyl-3-nitrobenzamide] cannot be ordered by IC50: under 100 nM for the first, under 100 nM for the second.
